Assay results reported in patent publication US10166237B2, “Compounds and methods for inducing chondrogenesis” (The Scripps Research Institute, priority 2011, dated 2019).

B1: TGFβ3: "known inducers of chondrogenic differentiation (TGFβ3, BMP7 or BMP2)" (protein, UniProt P10600 301-412, looked up)
Transforming growth factor …: ALDTNYCFRNLEENCCVRPLYIDFRQDLGWKWVHEPKGYYANFCSGPCPYLRSADTTHSTVLGLYNTLNPEASASPCCVPQDLEPLTILYYVGRTPKVEQLSNMVVKSCKCS

Experiments:
[1] = test system: primary bovine chondrocytes; assay: inhibition of cytokine-induced nitric oxide release (Greiss reaction); type: cell-based; conditions: Bos taurus, Chondrocyte; second value of the cell (after the slash); TNFα and oncostatin M, 48 hours; read-out: NO INHIBTION μM IC50
Description: (§1) In the screen, hMSCs were used as a surrogate to future targeting of the resident MSCs with the cartilage joint. It was in that setting upon which we identified PRO1. In a joint injury, the primary cell type a therapeutic would have contact with is the chondrocyte. Although cartilage or chondrocyte-targeted screening has not lead to the development of a successful drug modifying osteoarthritis drug (DMOAD) to date, it is believed that a stem cell-based therapeutic would protect and even repair the existing chondrocytes. Therefore, protection of the articular chondrocytes and cartilage from a mature bovine knee was assessed. PRO1 and its analogues were incubated with primary bovine chondrocytes or cartilage explants cultures grown in the presence of TNFα and oncostatin M to mimic the cytokine-induced damage that can occur during OA. In the presence of the cytokine cocktail, in vitro cultured primary chondrocytes released 4-5 fold more nitric oxide (NO) than the untreated chondrocytes (50 μM vs 10 μM) as measured by the Greiss reaction. In cells treated with the cytokine cocktail and PRO1, the small molecule could effectively block the release of NO by up to 70% FIG. 2C). Similarly, in ex vivo treated cartilage explants, cytokine-induced release of glycosaminoglycans (GAG) was reduced by up to 60% by PRO1 (FIG. 2D). Finally, hMSC were grown in pellet culture for 21 days.
(§2) Primary hMSCs were plated (10,000/well) in 384-well plates and cultured for 18 days. The cells were fixed with 4% formalin, permeabilized with triton (0.5%), digested with 0.5 mg/ml collagenase II to unwind the collagen fibrils, and then immunostained with an antibody recognizing type II collagen. DAPI (2 μg/ml) was added to visualize the nuclei. The chondrogenic nodules stained positive for type II collagen but lacked expression of type X collagen and osteocalcin, markers for chondrocyte hypertrophy and osteoblasts, respectively (not shown). 10,000 hMSCs (passages 3-5) were plated in Greiner 384-well low-bottom plates on day 1. The cells were allowed to adhere and stimulated for 48 hrs (days 2-3) with the indicated stimuli in MSC growth media (Millipore). The media was then removed and replaced with serum-free DMEM for an additional 16 days. This media was replenished on days 10 and 15 of the assay. Primary bovine chondrocytes were isolated from the articular surfaces from mature knees. After one week of culture, 8,500 cells were trypsinized and plated in Greiner 384-well white clear-bottom plates in growth media. […] 20 μl of the supernatant was mixed with 20 μl of the Greiss reagent and quantitated at 540 nm as described by the Promega kit instructions. Bovine cartilage explants (cut in circular explants in a 96 well plate) were cultured in the presence of 20 ng/ml TNFα and 10 ng/ml oncostatin M to induce GAG release for 72 hours (FIG. 2D). PRO1 was added at the indicated concentrations during the entire 72 hrs. […] Parafin sections were hydrated, incubated in low pH Antigen unmasking solution (Vector) at 90 C for 10 minutes, permeabilized with 0.1% collagenase II (only for the sections stained with type II collagen) for 10 minutes, blocked with CAS block for 10 minutes and then incubated with the primary antibody (type II collagen, aggrecan or Timp1) antibody (Abcam) overnight at 4 C. The antigens were visualized through standard ABC detection methods and developed with DAB. Representative of 3 sections stained/treatment group (independent experiments).

hMSCs = assay: type II collagen expression in hMSC cultures (18 day assay); type: cell-based, human; conditions: for EC50: Homo sapiens
Method: The chondrogenic differentiation event was initiated quickly even though a fully differentiated chondrocyte phenotype cannot be assessed prior to 14 days in culture. In an 18 day assay, compound treatment was only required for the first 48 hrs and followed by removal and replacement of the media (in the absence of stimuli, FIG. 2B). The promotion of chondrogenic differentiation was not altered or enhanced upon longer treatment with the stimuli (data not shown).
as §2

[2] = test system: human mesenchymal stem cells (hMSCs); assay: chondrogenic nodule formation by hMSCs (high throughput screen); type: cell-based; conditions: Homo sapiens, Mesenchymal stem cells; first value of the cell (before the slash); read-out: CHONDROGENIC μM EC50
Method: The primary screening assay was based upon the development of chondrogenic nodules. Chondrocytes can grow in monolayer in vitro, but to more closely mimic their native environment in the joint, the cells are routinely cultured in non-adherent conditions such as in pellet cultures or alginate bead suspensions.
In the actual screen of a library of 22,000 structurally diverse heterocycles, 10^4 primary hMSCs were plated in 384 well plates in serum free DMEM. The cells were treated with 5 μM of each compound and incubated for 4 days. […] To facilitate high throughput imaged-based detection, the chondrogenic nodules were stained with […]. The Nile Red stained nodules were quantified on an Acumen eX3 (high content imaging device) by excitation with a 488 laser for rapid detection of the nodules.
Primary hMSCs grown in a 96 well Greiner plates (50,000/well) were incubated for 4 days in the presence of the 5 uM of each DMSO or 100 nM of PRO1. On day 4, the cells were fixed with 4% formalin for 10 minutes, washed and stained with 1 μg/ml of Rhodamine B for 2 hours at room temperature.

[3] = test system: bovine cartilage explants; assay: cytokine-induced GAG release from cartilage explants ex vivo; type: cell-based; conditions: 1 μM (or less); compared with PRO1
Description: as §1, with “In cells treated with the cytokine cocktail and PRO1, the small molecule could effectively block the release of NO by up to 70% FIG. 2C). Similarly, in ex vivo treated cartilage explants, cytokine-induced release of glycosaminoglycans (GAG) was reduced by up to 60% by PRO1 (FIG. 2D). Finally, hMSC were grown in pellet culture for 21 days.” left out
Primary hMSCs were plated (10,000/well) in 384-well plates and cultured for 18 days. […] 20 μl of the supernatant was mixed with 20 μl of the Greiss reagent and quantitated at 540 nm as described by the Promega kit instructions. […]

Molecule	IC50 [1] [µM]	EC50 (hMSCs) [µM]	EC50 [2] [µM]	induction of chondrogenic differentiation of hMSCs (hMSCs; compared with known inducers TGFβ3, BMP7 or BMP2, FIG. 2B)	chondro-protective activities [3]
O=C(O)c1ccccc1C(=O)Nc1ccc(CO)cc1 [AKT-CH2OH, 2-((4-(hydroxymethyl)phenyl)carbamoyl)benzoic acid]	0.27	8.46	0.04	–	–
N#Cc1ccc(NC(=O)c2ccccc2C(=O)O)cc1 [AKT-CN]	0.03	0.108	0.137	more potent and efficient	–
O=C(O)c1cc(F)ccc1C(=O)Nc1ccc(-c2ccccc2)cc1 [AKT-F]	> 10	> 10	> 10	–	–
Cc1ccc(C(=O)Nc2ccc(-c3ccccc3)cc2)c(C(=O)O)c1 [AKT-Me]	> 10	> 10	> 10	–	–
CCNC(=O)c1ccccc1C(=O)O [AKT-NHEt]	> 10	> 10	2.01	–	–
CNC(=O)c1ccccc1C(=O)O [AKT-NHMe]	0.0046	0.24	2.7	–	–
[N-]=[N+]=Nc1ccc(C(=O)NCCCNC(=O)c2ccccc2C(=O)NNC(=O)CCOCCC2SCC3NC(=O)NC32)c(O)c1 (centres unmarked) [AKT-azide]	0.12	0.654	–	–	–
CC(C)CNC(=O)c1ccccc1C(=O)Nc1ccc(-c2ccccc2)cc1 [AKT-iPr]	> 10	6.98	0.0015	–	–
COc1ccc(NC(=O)c2ccccc2C(=O)O)cc1 [Compound L2, 2-((4-methoxyphenyl)carbamoyl)benzoic acid]	–	> 10	> 10	–	–
O=C(O)c1ccccc1C(=O)Nc1ccc(C(F)(F)F)cc1 [Compound L4, 2-((4-(trifluoromethyl)phenyl)carbamoyl)benzoic acid]	22.1	11.1	9.5	–	–
Cc1cncc(NC(=O)c2ccccc2C(=O)O)c1 [Compound L5]	2.4	> 10	0.6	–	–
Cc1ccc(NC(=O)c2ccccc2C(=O)O)cn1 [Compound L6]	> 10	> 10	> 10	–	–
O=C(O)c1ccccc1C(=O)Nc1ccc(I)cc1 [Compound L11a, 2-((4-iodophenyl)carbamoyl)benzoic acid]	> 10	> 10	> 10	–	–
O=C(O)c1ccccc1C(=O)Nc1ccc(CCO)cc1 [Compound L11c, 2-((4-(2-hydroxyethyl)phenyl)carbamoyl)benzoic acid]	> 10	> 10	0.125	–	–
N#CCc1ccc(NC(=O)c2ccccc2C(=O)O)cc1 [Compound L13]	> 10	> 10	> 10	–	–
O=C(O)c1cc(S(=O)(=O)c2ccc(C(=O)Nc3ccc(-c4ccccc4)cc3)c(C(=O)O)c2)ccc1C(=O)Nc1ccc(-c2ccccc2)cc1 [LK4]	> 10	33.3	3.8	–	–
O=C(O)c1ccccc1C(=O)Nc1ccc(N2CCOCC2)cc1 [LK6, 2-((4-morpholinophenyl)carbamoyl)benzoic acid]	> 10	> 10	9.1	–	–

Molecule	IC50 [1] [µM]	EC50 (hMSCs) [µM]	EC50 [2] [µM]	induction of chondrogenic differentiation of hMSCs (hMSCs; compared with known inducers TGFβ3, BMP7 or BMP2, FIG. 2B)	chondro-protective activities [3]
O=C(O)c1ccccc1C(=O)Nc1ccc(Nc2ccccc2)cc1 [LK7]	> 10	> 10	> 10	–	–
NS(=O)(=O)c1ccc(NC(=O)c2ccccc2C(=O)O)cc1 [LK8]	> 10	> 10	9.1	–	–
O=C(O)c1ccccc1C(=O)Nc1ccc(CCCc2ccccn2)cc1 [LK15, 2-((4-(3-(pyridin-2-yl)propyl)phenyl)carbamoyl)benzoic acid]	> 10	> 10	0.12	–	–
O=C(O)c1ccccc1C(=O)Nc1ccc(-c2ccccc2)cc1 [LK18b]	2.7	0.05	0.0015	–	–
Cc1ccc(C(=O)Nc2ccc(C#N)cc2)cc1 [LK20b]	> 10	> 10	0.014	–	–
O=C(O)c1cc(O)ccc1C(=O)Nc1ccc(-c2ccccc2)cc1 [LK22b, 2-([1,1′-biphenyl]-4-ylcarbamoyl)-5-hydroxybenzoic acid]	> 10	> 10	0.0046	–	–
O=C(O)c1ccccc1C(=O)Nc1ncc(-c2ccc(F)c(F)c2)s1 [LK35]	0.03	> 10	> 10	–	–
COC(=O)c1ccccc1C(=O)Nc1ccc(-c2ccccc2)cc1 [LK55b, Methyl 2-([1,1′-biphenyl]-4-ylcarbamoyl)benzoate]	0.234	–	0.124	–	–
O=C(O)c1ccccc1C(=O)Nc1ccc([N+](=O)[O-])cn1 [LK59, 2-((5-nitropyridin-2-yl)carbamoyl)benzoic acid]	0.491	–	0.371	–	–
Cc1ccc(NC(=O)c2ccccc2C(=O)O)c(C(=O)O)c1 [LK60, 2-(2-carboxybenzamido)-5-methylbenzoic acid]	1.25	–	0.014	–	–
CN1C(=O)c2ccc(NC(=O)c3ccccc3C(=O)O)cc2C1=O [LK61]	1.69	–	0.052	–	–
O=C(O)c1ccccc1C(=O)Nc1ccc2c(c1)OCO2 [LK62, 2-(benzo[1,3]dioxol-5-ylcarbamoyl)benzoic acid]	0.145	–	3.36	–	–
O=C(O)c1ccc(NC(=O)c2ccccc2C(=O)O)cc1Cl [LK63, 4-(2-carboxybenzamido)-2-chlorobenzoic acid]	0.0298	–	0.126	–	–
O=C(O)c1ccc(CNC(=O)c2ccccc2C(=O)O)cc1 [LK64]	0.981	–	0.398	–	–
C[C@@H](C(=O)Nc1ccc(Cl)cn1)N1Cc2ccccc2C1=O [SMA-1*]	0.04	0.37	> 10	–	–
B1	–	–	–	–	did not have the same degree of chondro-protective activities
